Converted amounts (≈) assume the structure as drawn.
What was measured:
Assay type in all cases: functional
Staphylococcus aureus [1] = test: Antibacterial activity against methicillin resistant Staphylococcus aureus […] after 18 hrs by serial agar dilution method
[2] = Antibacterial activity against Photobacterium damselae subsp. piscicida after 18 hrs by serial agar dilution method
Staphylococcus aureus [3] = test: Antibacterial activity against […] Staphylococcus aureus ATCC 25923 after 18 hrs by serial agar dilution method; settings: ATCC 25923, 18 h
Micrococcus luteus = test: Antibacterial activity against Micrococcus luteus after 18 hrs by serial agar dilution method
Staphylococcus aureus [4] = test: Antibacterial activity against Staphylococcus aureus after 18 hrs by serial agar dilution method
Bacillus subtilis = test: Antibacterial activity against Bacillus subtilis after 18 hrs by serial agar dilution method

Row | Structure (SMILES) | MIC (Staphylococcus aureus [1]) | MIC [2] [µg/mL] | MIC (Staphylococcus aureus [3]) [µg/mL] | other results
1 | CC(=O)NCCCSCC1OC(=O)C2=C1O[C@@H]1[C@@H](O)[C@]3(O)CCCC[C@H]3[C@](C)(C2=O)[C@@H]1C (some centres undefined) | 12.5 µg/mL | 6.25 (≈ 13.4 µM) | – | –
2 | C=C1OC(=O)C2=C1O[C@H]1C[C@](C)(CC(O)C1O)C2=O (some centres undefined) | – | – | > 128 | –
3 | C[C@@H]1[C@@H]2OC3=C(C(=O)OC3CSCCO)C(=O)[C@@]1(C)[C@@H]1CCCC[C@@]1(O)[C@@H]2O (some centres undefined) | 25 µg/mL | 6.25 (≈ 15.2 µM) | – | –
4 | C=C1OC(=O)C2=C1O[C@@H]1[C@@H](O)[C@]3(O)CCCC[C@H]3[C@](C)(C2=O)[C@@H]1C | 18.7 to 37.4 µM | 1.56 to 18.7 (≈ 4.67 to 55.9 µM) | – | MIC (Micrococcus luteus): 18.7 to 37.4 µM (≈ 6.25 to 12.5 µg/mL); MIC (Staphylococcus aureus [4]): 18.7 to 37.4 µM (≈ 6.25 to 12.5 µg/mL); MIC (Bacillus subtilis): 18.7 to 37.4 µM (≈ 6.25 to 12.5 µg/mL)
5 | C[C@@H]1[C@@H]2OC3=C(C(=O)OC3(Br)CBr)C(=O)[C@@]1(C)[C@@H]1CCCC[C@@]1(O)[C@@H]2O (some centres undefined) | > 100 µg/mL | 12.5 (≈ 25.3 µM) | – | –
6 | C=C1OC(=O)C2=C1O[C@@H]1C=CC[C@@](C)(C1)C2=O | – | – | 4 (≈ 17.2 µM) | –
7 | C=C1OC(=O)C2=C1O[C@@H]1[C@@H](OC(=O)c3ccc4ccccc4c3)[C@]3(O)CCCC[C@H]3[C@](C)(C2=O)[C@@H]1C | 1.61 µM | > 100 | – | –
8 | CC1OC(=O)C2=C1O[C@@H]1[C@@H](O)[C@]3(O)CCCC[C@H]3[C@](C)(C2=O)[C@@H]1C (some centres undefined) | > 100 µg/mL | 50 (≈ 149 µM) | – | –
9 | C=C1OC(=O)C2=C1O[C@H]1C[C@](C)(CC(OC(=O)c3ccc4ccccc4c3)C1O)C2=O (some centres undefined) | – | – | 128 (≈ 304 µM) | –
10 | C=C1OC(=O)C2=C1O[C@H]1C[C@](C)(CC(O)C1OC(=O)c1ccc3ccccc3c1)C2=O (some centres undefined) | – | – | 8 (≈ 19 µM) | –

Source: ChEMBL document CHEMBL3864124, “Tetrodecamycin: An unusual and interesting tetronate antibiotic” (2016)
